Measurements reported in paper PMC4821887, “Identification of chemicals that mimic transcriptional changes associated with autism, brain aging and neurodegeneration” (Nature Communications, 2016).
Structures can show the parent of a compound that is named as a salt.

tested on: mouse cortical neuron cultures; conditions: not given

Going from `CCOP(=S)(OCC)SCn1c(=O)oc2cc(Cl)ccc21` [Phosalone] to `Nc1c(Cl)c(Cl)nc(C(=O)O)c1Cl` [Picloram], the “% Dead cells (vehicle subtracted)” value rises from 3.318% to 3.752%.

First: Cc1nc(N(C)C)nc(OC(=O)N(C)C)c1C [Pirimicarb]
Second: CCN(CC)c1nc(C)cc(OP(=S)(OC)OC)n1 [Pirimiphos-methyl]
The “% Dead cells (vehicle subtracted)” value of the first is lower: -1.736% for the first, -0.1826% for the second.

Going from `C#CCC1=C(C)C(OC(=O)C2C(C=C(C)C)C2(C)C)CC1=O` (stereo not drawn) [Prallethrin] to `CCCN(CCOc1c(Cl)cc(Cl)cc1Cl)C(=O)n1ccnc1` [Prochloraz], the “% Dead cells (vehicle subtracted)” value falls from -0.1241% to -2.048%.

Going from `CCCN(CCC)c1c([N+](=O)[O-])cc(C(F)(F)F)c(N)c1[N+](=O)[O-]` [Prodiamine] to `CCCSP(=O)(OCC)Oc1ccc(Br)cc1Cl` (stereo not drawn) [Profenofos], the “% Dead cells (vehicle subtracted)” value falls from -0.1982% to -2.76%.

Compared with `CCCOC(=O)NCCCN(C)C` [Propamocarb hydrochloride], `CCC(=O)Nc1ccc(Cl)c(Cl)c1` [Propanil] is lower in “% Dead cells (vehicle subtracted)” value: -1.887% for the first, -3.018% for the second.

First: CCNP(=S)(OC)O/C(C)=C/C(=O)OC(C)C (stereo not drawn) [Propetamphos]
Second: CCCC1COC(Cn2cncn2)(c2ccc(Cl)cc2Cl)O1 (stereo not drawn) [Propiconazole]
The “% Dead cells (vehicle subtracted)” value of the first is lower: -0.3061% for the first, 0.7517% for the second.

Compared with `CNC(=O)Oc1ccccc1OC(C)C` [Propoxur], `CCCOc1nn(C(=O)[N-]S(=O)(=O)c2ccccc2C(=O)OC)c(=O)n1C.[Na+]` [Propoxycarbazone-sodium] is lower in “% Dead cells (vehicle subtracted)” value: 0.5409% for the first, -1.764% for the second.

Compared with `C#CC(C)(C)NC(=O)c1cc(Cl)cc(Cl)c1` [Propyzamide], `CCOC(=O)COc1cc(-c2nn(C)c(OC(F)F)c2Cl)c(F)cc1Cl` [Pyraflufen-ethyl] is lower in “% Dead cells (vehicle subtracted)” value: 1.57% for the first, -2.144% for the second.

Compared with `O=C(O)c1c(Cl)ccc2cc(Cl)cnc12` [Quinclorac], `O=[N+]([O-])c1c(Cl)c(Cl)c(Cl)c(Cl)c1Cl` [Quintozene] is lower in “% Dead cells (vehicle subtracted)” value: -1.41% for the first, -2.206% for the second.

Going from `CC(C)=CC1C(C(=O)OCc2coc(Cc3ccccc3)c2)C1(C)C` (stereo not drawn) [Resmethrin] to `C=CCC1=C(C)[C@@H](OC(=O)[C@@H]2[C@@H](C=C(C)C)C2(C)C)CC1=O` [S-Bioallethrin], the “% Dead cells (vehicle subtracted)” value falls from 1.827% to -1.697%.

Going from `CCC/C(=N\OCC)C1=C(O)CC(CC(C)SCC)CC1=O` (stereo not drawn) [Sethoxydim] to `CCC(C)(C)C(=O)OC1=C(c2ccc(Cl)cc2Cl)C(=O)OC12CCCCC2` [Spirodiclofen], the “% Dead cells (vehicle subtracted)” value rises from -0.798% to 1.699%.

Going from `O=c1n(Cl)c(=O)n(Cl)c(=O)n1Cl` [Symclosene (Trichloro-s-triazinetrione)] to `CCc1ccc(C(=O)NN(C(=O)c2cc(C)cc(C)c2)C(C)(C)C)cc1` [Tebufenozide], the “% Dead cells (vehicle subtracted)” value falls from 4.474% to -1.661%.

First: CCOP(=S)(Oc1cnc(C(C)(C)C)nc1)OC(C)C (stereo not drawn) [Tebupirimfos]
Second: CNC(=O)N(C)c1nnc(C(C)(C)C)s1 [Tebuthiuron]
The “% Dead cells (vehicle subtracted)” value of the first is higher: 0.1923% for the first, -0.9604% for the second.

Compared with `CC(C)=CC1C(C(=O)OCN2C(=O)C3=C(CCCC3)C2=O)C1(C)C` (stereo not drawn) [Tetramethrin], `N#C/N=C1\SCCN1Cc1ccc(Cl)nc1` [Thiacloprid] is higher in “% Dead cells (vehicle subtracted)” value: -2.018% for the first, 2.238% for the second.

First: CN1COCN(Cc2cnc(Cl)s2)/C1=N\[N+](=O)[O-] [Thiamethoxam]
Second: COC(=O)c1c(C(F)F)nc(C(F)(F)F)c(C2=NCCS2)c1CC(C)C [Thiazopyr]
The “% Dead cells (vehicle subtracted)” value of the first is higher: 1.407% for the first, 1.196% for the second.

First: CN(C)C(=S)SSC(=S)N(C)C [Thiram]
Second: CCO/N=C(\CC)C1=C(O)CC(c2c(C)cc(C)cc2C)CC1=O (stereo not drawn) [Tralkoxydim]
The “% Dead cells (vehicle subtracted)” value of the first is lower: 0.7821% for the first, 4.508% for the second.

Going from `CC(C)N(C(=O)SCC(Cl)=C(Cl)Cl)C(C)C` [Tri-allate] to `CC(C)(C)C(=O)C(Oc1ccc(Cl)cc1)n1cncn1` (stereo not drawn) [Triadimefon], the “% Dead cells (vehicle subtracted)” value falls from 1.844% to -0.7492%.

Going from `CCCCSP(=O)(SCCCC)SCCCC` [Tribufos] to `COP(=O)(OC)C(O)C(Cl)(Cl)Cl` (stereo not drawn) [Trichlorfon], the “% Dead cells (vehicle subtracted)” value rises from -0.3794% to 2.414%.

Going from `O=C(O)COc1nc(Cl)c(Cl)cc1Cl` [Triclopyr] to `Oc1cc(Cl)ccc1Oc1ccc(Cl)cc1Cl` [Triclosan], the “% Dead cells (vehicle subtracted)” value rises from -0.8572% to 0.6048%.

Compared with `COc1cc(OC)nc(NC(=O)[N-]S(=O)(=O)c2ncccc2OCC(F)(F)F)n1.[Na+]` [Trifloxysulfuron-sodium], `CCCN(CCC)c1c([N+](=O)[O-])cc(C(F)(F)F)cc1[N+](=O)[O-]` [Trifluralin] is lower in “% Dead cells (vehicle subtracted)” value: 0.5929% for the first, 0.2689% for the second.

Compared with Abamectin, Chlorpyrifos oxon is lower in “% Dead cells (vehicle subtracted)” value: 4.666% for the first, 0.8087% for the second.

First: Mancozeb
Second: Metiram-zinc
The “% Dead cells (vehicle subtracted)” value of the first is higher: 1.017% for the first, -0.5751% for the second.

With Milbemectin the “% Dead cells (vehicle subtracted)” value was 1.383%.

same assay, conditions: mouse, 24 h, 10 µM

Going from `CCCCOCCOCCOCc1cc2c(cc1CCC)OCO2` [Piperonyl butoxide] to `CCOC(=O)C(C)Oc1ccc(Oc2cnc3cc(Cl)ccc3n2)cc1` (stereo not drawn) [Quizalofop-ethyl], the “% Dead cells (vehicle subtracted)” value falls from -3.535% to -4.709%.

Going from `CSc1nc(NC(C)C)nc(NC(C)C)n1` [Prometryn] to `COC(=O)c1ccccc1S(=O)(=O)NC(=O)N(C)c1nc(C)nc(OC)n1` [Tribenuron-methyl], the “% Dead cells (vehicle subtracted)” value rises from -5.322% to -1.861%.

Going from `Cc1cc(C)nc(Nc2ccccc2)n1` [Pyrimethanil] to `c1ccc2[nH]c(-c3cscn3)nc2c1` [Thiabendazole], the “% Dead cells (vehicle subtracted)” value rises from -4.407% to -3.658%.

Compared with `CC(COc1ccc(Oc2ccccc2)cc1)Oc1ccccn1` (stereo not drawn) [Pyriproxyfen], `CC(C)(C)C(O)C(Oc1ccc(Cl)cc1)n1cncn1` (stereo not drawn) [Triadimenol] is higher in “% Dead cells (vehicle subtracted)” value: 1.128% for the first, 2.51% for the second.

Compared with `COc1cc(OC)nc(Sc2cccc(Cl)c2C(=O)O)n1` [Pyrithiobac-sodium], `CCOC(=O)NC(=S)Nc1ccccc1NC(=S)NC(=O)OCC` [Thiophanate] is lower in “% Dead cells (vehicle subtracted)” value: 0.5188% for the first, -1.666% for the second.

First: CCCN(CC)CC1COC2(CCC(C(C)(C)C)CC2)O1 (stereo not drawn) [Spiroxamine]
Second: CCN(CC)C(=O)SCc1ccc(Cl)cc1 [Thiobencarb]
The “% Dead cells (vehicle subtracted)” value of the first is higher: 7.8727% for the first, -1.522% for the second.

First: Cc1nn(-c2cc(NS(C)(=O)=O)c(Cl)cc2Cl)c(=O)n1C(F)F [Sulfentrazone]
Second: C=CC1(C)OC(=O)N(c2cc(Cl)cc(Cl)c2)C1=O (stereo not drawn) [Vinclozolin]
The “% Dead cells (vehicle subtracted)” value of the first is higher: -1.513% for the first, -1.854% for the second.

Compared with `Cc1[nH]c(=O)n(C(C)(C)C)c(=O)c1Cl` [Terbacil], `CCCOC/C(=N\c1ccc(Cl)cc1C(F)(F)F)n1ccnc1` [Triflumizole] is lower in “% Dead cells (vehicle subtracted)” value: 6.548% for the first, 1.241% for the second.

Compared with `FC(F)C(F)(F)OCC(Cn1cncn1)c1ccc(Cl)cc1Cl` (stereo not drawn) [Tetraconazole], `CC1(C)CCC(=Cc2ccc(Cl)cc2)C1(O)Cn1cncn1` (stereo not drawn) [Triticonazole] is lower in “% Dead cells (vehicle subtracted)” value: 2.833% for the first, 0.8709% for the second.
